This note sets out measurements from PubChem BioAssay AID248 (DTP/NCI, 2004).

The test system of the test is L1210 leukemia ip in BDF1 mice, survival T/C. As to the kind of experiment: NCI In Vivo Anticancer Drug Screen. Data for tumor model L1210 Leukemia (intraperitoneal) in B6D2F1 (BDF1) mice. The note with it: endpoint: mean survival time, higher = longer survival. The gist of the method:
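Tumor was transplanted into mice, which were then dosed with test compound or vehicle alone. Survival was recorded for each group, and the treated figure was expressed relative to the control figure.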

The mark [1] stands for this setting: dose: 100.0 mg/kg/injection, schedule: Q01DX001 (ip), vehicle: carboxymethylcellulose (CMC).
[2] abbreviates: dose: 200.0 mg/kg/injection, schedule: Q01DX001 (ip), vehicle: carboxymethylcellulose (CMC).
The mark [3] stands for this setting: dose: 400.0 mg/kg/injection, schedule: Q01DX001 (ip), vehicle: carboxymethylcellulose (CMC).
Setting [4] is: dose: 25.0 mg/kg/injection, schedule: Q04DX002 (ip), vehicle: Klucel (hydroxypropylcellulose) (HPC).
Setting [5] is: dose: 100.0 mg/kg/injection, schedule: Q04DX002 (ip), vehicle: Klucel (hydroxypropylcellulose) (HPC).
Setting [6] is: dose: 200.0 mg/kg/injection, schedule: Q04DX002 (ip), vehicle: Klucel (hydroxypropylcellulose) (HPC).
Setting [7] is: dose: 400.0 mg/kg/injection, schedule: Q04DX002 (ip), vehicle: Klucel (hydroxypropylcellulose) (HPC).
Where [8] appears, read: dose: 100.0 mg/kg/injection, schedule: Q01DX009 (ip), vehicle: Klucel (hydroxypropylcellulose) (HPC).
Where [9] appears, read: dose: 200.0 mg/kg/injection, schedule: Q01DX009 (ip), vehicle: Klucel (hydroxypropylcellulose) (HPC).
Where [10] appears, read: dose: 100.0 mg/kg/injection, schedule: Q04DX003 (ip), vehicle: Klucel (hydroxypropylcellulose) (HPC).
Where [11] appears, read: dose: 200.0 mg/kg/injection, schedule: Q04DX003 (ip), vehicle: Klucel (hydroxypropylcellulose) (HPC).
[12] abbreviates: dose: 400.0 mg/kg/injection, schedule: Q04DX003 (ip), vehicle: Klucel (hydroxypropylcellulose) (HPC).

Each structure is given as a SMILES string. Inconclusive results and toxic doses are left out.

Consider `O=[N+]([O-])c1ccc2cnn(CCCl)c2c1`, for which the T/C runs as follows: under setting [1], 94 % of control; under setting [2], 100 % of control; under setting [3], 108 % of control.
In the case of `Brc1cccc[n+]1CCC[n+]1ccccc1Br`, the T/C is 93 % of control (dose: 2.2 mg/kg/injection, schedule: Q01DX Z (ip), vehicle: saline); 87 % of control (dose: 3.3 mg/kg/injection, schedule: Q01DX Z (ip), vehicle: saline); 98 % of control (dose: 5.0 mg/kg/injection, schedule: Q01DX Z (ip), vehicle: saline).
On to `CC1(C)C(=O)N(Cl)C(=O)N1Cl`, for which the T/C runs as follows: (dose: 3.12 mg/kg/injection, schedule: Q01DX009 (ip), vehicle: Klucel (hydroxypropylcellulose) (HPC)) 90 % of control; (dose: 3.13 mg/kg/injection, schedule: Q01DX001 (ip), vehicle: saline sonified) 90 % of control; (dose: 3.13 mg/kg/injection, schedule: Q01DX009 (ip), vehicle: saline) 99 % of control; (dose: 6.25 mg/kg/injection, schedule: Q01DX001 (ip), vehicle: saline sonified) 97 % of control; (dose: 6.25 mg/kg/injection, schedule: Q01DX009 (ip), vehicle: Klucel (hydroxypropylcellulose) (HPC)) 90 % of control; (dose: 6.25 mg/kg/injection, schedule: Q01DX009 (ip), vehicle: saline) 95 % of control. Also, the T/C (dose: 12.5 mg/kg/injection, schedule: Q01DX001 (ip), vehicle: saline sonified) is 95 % of control; the T/C (dose: 12.5 mg/kg/injection, schedule: Q01DX009 (ip), vehicle: saline) is 99 % of control; the T/C (dose: 12.5 mg/kg/injection, schedule: Q04DX002 (ip), vehicle: Klucel (hydroxypropylcellulose) (HPC)) is 97 % of control; the T/C (dose: 25.0 mg/kg/injection, schedule: Q01DX009 (ip), vehicle: Klucel (hydroxypropylcellulose) (HPC)) is 91 % of control; the T/C under setting [4] is 94 % of control.
Take `Cc1scc[n+]1C`: the T/C reads like this: (dose: 75.0 mg/kg/injection, schedule: Q01DX001 (ip), vehicle: saline) 104 % of control; (dose: 150.0 mg/kg/injection, schedule: Q01DX001 (ip), vehicle: saline) 102 % of control; (dose: 300.0 mg/kg/injection, schedule: Q01DX001 (ip), vehicle: saline) 107 % of control.
For `O=C1CN(CCN2CC(=O)N(Cc3ccccc3)C2=S)C(=S)N1Cc1ccccc1`, the T/C runs as follows: under setting [5], 88 % of control; under setting [6], 88 % of control; under setting [7], 92 % of control.
As to `Cc1cc(C)c2c(c1)C/C2=N\O`, the T/C reads like this: under setting [5], 106 % of control; under setting [6], 106 % of control; under setting [7], 103 % of control.
In the case of `O=C(CNC(=O)Nc1ccc(C2=NCCN2)cc1)Nc1ccc(C2=NCCN2)cc1`, the T/C runs as follows: (dose: 4.5 mg/kg/injection, schedule: Q01DX Z (ip), vehicle: carboxymethylcellulose (CMC)) 117 % of control; (dose: 9.0 mg/kg/injection, schedule: Q01DX Z (ip), vehicle: carboxymethylcellulose (CMC)) 159 % of control; (dose: 18.0 mg/kg/injection, schedule: Q01DX Z (ip), vehicle: carboxymethylcellulose (CMC)) 247 % of control; (dose: 36.0 mg/kg/injection, schedule: Q01DX Z (ip), vehicle: carboxymethylcellulose (CMC)) 192 % of control; (dose: 50.0 mg/kg/injection, schedule: Q01DX Z (oral), vehicle: water) 98 % of control; (dose: 100.0 mg/kg/injection, schedule: Q01DX Z (oral), vehicle: water) 115 % of control. Further, the T/C (dose: 200.0 mg/kg/injection, schedule: Q01DX Z (oral), vehicle: water) is 119 % of control and the T/C (dose: 400.0 mg/kg/injection, schedule: Q01DX Z (oral), vehicle: water) is 150 % of control.
Regarding `COc1ccc(NC(=O)Oc2ccc(Br)cc2Br)c(Cl)c1`, the T/C reads like this: (dose: 50.0 mg/kg/injection, schedule: Q01DX009 (ip), vehicle: saline + alcohol) 87 % of control; (dose: 100.0 mg/kg/injection, schedule: Q01DX009 (ip), vehicle: saline + alcohol) 87 % of control; (dose: 200.0 mg/kg/injection, schedule: Q01DX009 (ip), vehicle: saline + alcohol) 97 % of control.
For the compound `c1ccc(CNCc2ccccn2)nc1`, the T/C is, setting by setting: (dose: 50.0 mg/kg/injection, schedule: Q04DX002 (ip), vehicle: saline) 95 % of control; (dose: 100.0 mg/kg/injection, schedule: Q04DX002 (ip), vehicle: saline) 101 % of control.
As for `COc1c(O)c2c(=O)cc3c4c5c(cc(=O)c6c(O)c(OC)c(CC(C)O)c(c(c1CC(C)O)c24)c65)OCO3` (stereo unspecified), the T/C under setting [5] was 109 % of control, the T/C under setting [6] is 102 % of control and the T/C under setting [7] is 102 % of control.
Turning to `NC1=C(c2ccccc2)C(=O)C(N)=C(c2ccccc2)C1=O`, the T/C runs as follows: under setting [1], 96 % of control; under setting [2], 88 % of control; under setting [3], 88 % of control.
Regarding `CCCC(=O)OCC1CC2C=CC1C2` (stereo unspecified), the T/C was 100 % of control (dose: 222.0 mg/kg/injection, schedule: Q01DX Z (ip), vehicle: saline); 102 % of control (dose: 333.0 mg/kg/injection, schedule: Q01DX Z (ip), vehicle: saline); 112 % of control (dose: 500.0 mg/kg/injection, schedule: Q01DX Z (ip), vehicle: saline).
For `O=C(Nc1cccc([N+](=O)[O-])c1)Nc1ccccc1C(F)(F)F`, the T/C is 94 % of control under setting [8]; 91 % of control under setting [9]; 93 % of control (dose: 400.0 mg/kg/injection, schedule: Q01DX009 (ip), vehicle: Klucel (hydroxypropylcellulose) (HPC)).
`CN(N)C(=O)Nc1ccc(Cl)c(Cl)c1`: the T/C is 110 % of control (dose: 75.0 mg/kg/injection, schedule: Q01DX001 (ip), vehicle: carboxymethylcellulose (CMC)) and 113 % of control (dose: 150.0 mg/kg/injection, schedule: Q01DX001 (ip), vehicle: carboxymethylcellulose (CMC)).
As for `ClCc1c(Cl)c(Cl)c(Cl)c(CCl)c1Cl`, the T/C was 98 % of control under setting [8]; 96 % of control under setting [10]; 96 % of control under setting [9]; 98 % of control under setting [11]; 102 % of control under setting [12].
Take `CC(=O)C(C(=O)NCc1ccccc1)C(c1cccc([N+](=O)[O-])c1)C(C(C)=O)C(=O)NCc1ccccc1` (stereo unspecified): the T/C (dose: 25.6 mg/kg/injection, schedule: Q04DX002 (ip), vehicle: saline with Tween-80) is 95 % of control; the T/C (dose: 64.0 mg/kg/injection, schedule: Q04DX002 (ip), vehicle: saline with Tween-80) was 95 % of control; the T/C (dose: 160.0 mg/kg/injection, schedule: Q04DX002 (ip), vehicle: saline with Tween-80) was 95 % of control; the T/C (dose: 200.0 mg/kg/injection, schedule: Q04DX003 (ip), vehicle: saline with Tween-80) is 87 % of control; the T/C (dose: 400.0 mg/kg/injection, schedule: Q04DX002 (ip), vehicle: saline with Tween-80) was 95 % of control; the T/C (dose: 400.0 mg/kg/injection, schedule: Q04DX003 (ip), vehicle: saline with Tween-80) was 87 % of control.
As to `Nc1ncnc2nc(-c3ccc(Cl)c(Cl)c3)[nH]c12`, the T/C runs as follows: (dose: 37.5 mg/kg/injection, schedule: Q01DX001 (ip), vehicle: saline with Tween-80) 93 % of control; (dose: 75.0 mg/kg/injection, schedule: Q01DX001 (ip), vehicle: saline with Tween-80) 87 % of control; (dose: 150.0 mg/kg/injection, schedule: Q01DX001 (ip), vehicle: saline with Tween-80) 87 % of control.
Take `COc1ccc2c(c1)CCC1C2=CC(=O)CC1c1ccco1` (stereo unspecified): the T/C by setting is: under setting [10], 102 % of control; under setting [11], 93 % of control; under setting [12], 88 % of control.
Turning to `O=C(CN1C2CCC1CC(O)C2)NCC1C(c2ccccc2)C1c1ccccc1` (stereo unspecified), the T/C was 111 % of control under setting [4]; 95 % of control (dose: 50.0 mg/kg/injection, schedule: Q04DX002 (ip), vehicle: Klucel (hydroxypropylcellulose) (HPC)); 109 % of control under setting [5].
In the case of `Cc1ccc(S(=O)(=O)O)cn1`, the T/C was 94 % of control (dose: 100.0 mg/kg/injection, schedule: Q01DX001 (ip), vehicle: saline); 97 % of control (dose: 200.0 mg/kg/injection, schedule: Q01DX001 (ip), vehicle: saline); 92 % of control (dose: 400.0 mg/kg/injection, schedule: Q01DX001 (ip), vehicle: saline).
